# Measurements: patent US20250213572A1, “TYK2 INHIBITORS AND USES THEREOF” (Takeda Pharmaceutical Company Limited, priority 2022, published 2025)
# Columns and labels:
# [1] = Caco-2 (A-B Papp/Efflux Ratio); type: in vitro ADME; conditions: human
# [2] = molecular target: PXR (Homo sapiens, UniProt O75469); experiment: PXR activation; type: cell-based; conditions: at 30 μM
# Sequence of PXR (O75469 whole entry): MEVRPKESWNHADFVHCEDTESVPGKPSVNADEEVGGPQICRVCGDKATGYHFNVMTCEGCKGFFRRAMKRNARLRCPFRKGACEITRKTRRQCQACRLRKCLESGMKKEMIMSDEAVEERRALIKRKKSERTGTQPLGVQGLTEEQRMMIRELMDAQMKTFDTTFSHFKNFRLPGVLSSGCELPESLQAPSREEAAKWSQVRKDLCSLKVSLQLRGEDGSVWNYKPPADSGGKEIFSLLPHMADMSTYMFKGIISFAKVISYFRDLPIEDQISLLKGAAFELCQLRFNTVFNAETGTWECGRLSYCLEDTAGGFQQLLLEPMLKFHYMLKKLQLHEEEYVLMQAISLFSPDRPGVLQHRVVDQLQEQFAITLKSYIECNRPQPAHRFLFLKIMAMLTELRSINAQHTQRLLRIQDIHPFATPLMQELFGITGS
structure (smiles),measurement,setting,value
"CNc1cc(Nc2cccn(-c3ccccn3)c2=O)nc2c(C(=O)N[C@@H]3CC[C@H]3OC)cnn12 [Compound 1, N-((1R,2R)-2-methoxycyclobutyl)-7-(methylamino)-5-((2-oxo-2H-[1,2′-bipyridin]-3-yl)amino)pyrazolo[1,5-a]pyrimidine-3-carboxamide]",Papp A→B,[1],15 ×10⁻⁶ cm/s
same,PXR activation,[2],26 % of rifampicin control
